The source of these data is publication PMC4216217 (Journal of Medicinal Chemistry, 2014).

Read-outs that look alike come from different tables or passages of the source. Some results are limits rather than exact numbers.

The target in assay [1] is rat D2-like receptors (Rattus norvegicus, UniProt P61169). In words: biochemical. In kind it is binding.
Assay [2] has as its target rat D3 dopamine receptors (Rattus norvegicus, UniProt P19020). The assay can be described thus: biochemical. The format is binding.
Assay [3] has as its target human D3 receptor (Homo sapiens, UniProt P35462). In words: cell-based. In kind it is cell-based.

Chain of human D3 receptor (P35462 whole entry): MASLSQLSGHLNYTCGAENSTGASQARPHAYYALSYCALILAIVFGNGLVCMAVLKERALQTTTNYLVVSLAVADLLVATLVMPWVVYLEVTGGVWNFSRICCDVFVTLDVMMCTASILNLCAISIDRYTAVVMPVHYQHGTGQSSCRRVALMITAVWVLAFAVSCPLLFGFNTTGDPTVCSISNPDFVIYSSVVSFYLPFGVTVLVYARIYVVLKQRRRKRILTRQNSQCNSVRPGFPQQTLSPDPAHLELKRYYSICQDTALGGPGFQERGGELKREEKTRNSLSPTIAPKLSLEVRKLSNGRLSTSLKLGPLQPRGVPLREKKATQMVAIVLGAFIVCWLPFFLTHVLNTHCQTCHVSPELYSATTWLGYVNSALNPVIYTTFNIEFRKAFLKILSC
Chain of rat D2-like receptors (P61169 1-415 isoform P61169-2): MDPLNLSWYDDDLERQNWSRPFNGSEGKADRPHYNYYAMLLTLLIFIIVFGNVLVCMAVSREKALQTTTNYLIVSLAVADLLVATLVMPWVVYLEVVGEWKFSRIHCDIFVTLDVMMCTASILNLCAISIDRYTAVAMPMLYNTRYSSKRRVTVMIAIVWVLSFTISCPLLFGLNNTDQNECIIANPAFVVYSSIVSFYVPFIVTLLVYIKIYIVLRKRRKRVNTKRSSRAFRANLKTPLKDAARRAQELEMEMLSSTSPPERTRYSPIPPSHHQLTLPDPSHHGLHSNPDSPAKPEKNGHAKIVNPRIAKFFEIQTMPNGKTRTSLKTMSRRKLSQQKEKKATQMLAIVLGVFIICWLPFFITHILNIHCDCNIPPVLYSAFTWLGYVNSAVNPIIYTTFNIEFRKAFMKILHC
Chain of rat D3 dopamine receptors (P19020 whole entry): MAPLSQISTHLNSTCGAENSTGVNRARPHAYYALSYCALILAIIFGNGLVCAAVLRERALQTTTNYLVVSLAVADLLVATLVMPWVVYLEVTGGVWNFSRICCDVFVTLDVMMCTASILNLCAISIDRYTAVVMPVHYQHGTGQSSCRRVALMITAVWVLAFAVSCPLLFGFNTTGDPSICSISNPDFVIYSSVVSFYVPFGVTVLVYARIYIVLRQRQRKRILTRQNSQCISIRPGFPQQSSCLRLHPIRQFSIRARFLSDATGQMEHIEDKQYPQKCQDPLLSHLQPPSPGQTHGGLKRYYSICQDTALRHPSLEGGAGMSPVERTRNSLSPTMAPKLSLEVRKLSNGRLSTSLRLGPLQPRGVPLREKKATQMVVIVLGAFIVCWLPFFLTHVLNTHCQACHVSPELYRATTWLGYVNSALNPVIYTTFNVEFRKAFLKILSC

As usually defined, the Ki is a dissociation constant, usually derived from enzyme kinetics or from competition with a known ligand. On to `CCCN(CC[C@]1(O)C[C@@H](NC(=O)c2ccc3ccccc3c2)C1)C1CC1c1ccc(Cl)cc1` (relative stereo) [(±)-11, N-(cis-3-(2-((((±)-trans)-2-(4-Chlorophenyl)cyclopropyl)(propyl)-amino)ethyl)-3-hydroxycyclobutyl)-2-naphthamide], for which, in assay [1], the Ki is > 100000 nM and the “binding to the rat D2 receptor” value is reported as “neither compound showing measurable binding”.
In assay [1], `CCCN(CC[C@]1(O)C[C@@H](NC(=O)c2ccc3ccccc3c2)C1)[C@H]1C[C@@H]1c1ccccc1Cl` (relative stereo) [(±)-12, N-(cis-3-(2-((((±)-trans)-2-(2-Chlorophenyl)cyclopropyl)(propyl)-amino)ethyl)-3-hydroxycyclobutyl)-2-naphthamide] showed a Ki of 503 ± 63 nM.
For the compound `CCCN(CC[C@]1(O)C[C@@H](NC(=O)c2ccc3ccccc3c2)C1)[C@H]1C[C@@H]1c1cccc(Cl)c1` (relative stereo) [(±)-13, N-(cis-3-(2-((((±)-trans)-2-(3-Chlorophenyl)cyclopropyl)(propyl)-amino)ethyl)-3-hydroxycyclobutyl)-2-naphthamide], in assay [1] (at 100 μM), the “binding to the rat D2 receptor” value is listed as “neither compound showing measurable binding”. In addition, in assay [2], the “selectivity D3/D2” value was >29000 and the “selectivity for rat D3 receptor over rat D2 receptor” value (“selectivity for rat D3 receptor” below) is reported as > 10000. In addition, the affinity in assay [2] (Ki ± SEM, D3) corresponds to a Ki of 26 nM.
Turning to `CCCN[C@@H]1C[C@H]1c1ccccc1` [(1R,2S)-9, (1R,2S)-2-Phenyl-N-propylcyclopropanamine], in assay [2], the “selectivity for rat D3 receptor” value is on record as “approximately 80 fold”.
Take `CCCN(CC[C@]1(O)C[C@@H](NC(=O)c2ccc3ccccc3c2)C1)[C@@H]1C[C@H]1c1ccccc1` [(1R,2S)-10, N-(cis-3-Hydroxy-3-(2-(((1R,2S)-2-phenylcyclopropyl)(propyl)amino)-ethyl)cyclobutyl)-2-naphthamide]: the “selectivity for rat D3 receptor” value in assay [2] is recorded as 20–30 fold.
On to `CCCN(CC[C@]1(O)C[C@@H](NC(=O)c2ccc3ccccc3c2)C1)[C@@H]1C[C@H]1c1ccc(Cl)cc1` [(1R,2S)-11, N-(cis-3-(2-(((1R,2S)-2-(4-Chlorophenyl)cyclopropyl)(propyl)-amino)ethyl)-3-hydroxycyclobutyl)-2-naphthamide], for which the “binding to the rat D2 receptor” value in assay [1] is given as “no appreciable binding”. The EC50 in assay [3] is > 100000 nM; in assay [3] (read-out: agonist activity ED50, β-arrestin binding to human D3, U2OS), > 100000 nM. The “slope of the Schild plot” value in assay [3] (D3 activity stimulated by pramipexole) is −0.83. Besides, in assay [3] (β-arrestin binding to human D3, in words), the agonist activity entry is recorded as “no agonist activity”.
Turning to `CCCN[C@H]1C[C@@H]1c1ccccc1` [(1S,2R)-9, (1S,2R)-2-Phenyl-N-propylcyclopropanamine], the “selectivity for rat D3 receptor” value in assay [2] is “approximately 80 fold”.
In the case of `CCCN(CC[C@]1(O)C[C@@H](NC(=O)c2ccc3ccccc3c2)C1)[C@H]1C[C@@H]1c1ccccc1` [(1S,2R)-10, N-(cis-3-Hydroxy-3-(2-(((1S,2R)-2-phenylcyclopropyl)(propyl)-amino)ethyl)cyclobutyl)-2-naphthamide], in assay [2], the “selectivity for rat D3 receptor” value was 20–30 fold.
